# Legend:
# [1] = system: patient with alcoholic hepatitis; test: Treatment of a patient with alcoholic hepatitis (Example I); format: in vivo; details: 6 mg/kg oral, daily; at the end of three weeks
# Procedure: A patient with alcoholic hepatitis is admitted to a hospital complaining of nausea and upper abdominal pain. Liver function test results are total bilirubin of 4.0 mg/dl, direct bilirubin of 3.1 mg/dl, ALT of 100 IU/L, AST of 120 IU/L and prothrombin time of 15.1 seconds.
# At the end of three weeks, the nausea and upper abdominal pain have resolved. Each of the blood tests has improved.
# [2] = system: patient with autoimmune hepatitis; test: Treatment of a patient with autoimmune hepatitis (Example II); format: in vivo; details: 6 mg/kg oral for two months
# Procedure: The patient is a person with new onset nausea, loss of appetite and right upper quadrant tenderness. They are noted to have elevated liver chemistries. Serologic workup is notable for positive antinuclear and antismooth muscle antibodies. They are considered to have autoimmune hepatitis. Liver biopsy is consistent with this diagnosis. […] The patient is subsequently maintained on an oral dose of 6 mg/kg of the same drug.
SMILES,"blood tests (liver function tests: total bilirubin, direct bilirubin, ALT, AST, prothrombin time) [1]",nausea and upper abdominal pain [1],"symptoms (nausea, loss of appetite, right upper quadrant tenderness) [2]"
NS(=O)(=O)c1ccc(-n2nc(C(F)(F)F)cc2-c2ccc(Cl)cc2)cc1 [4-[5-(4-Chlorophenyl)-3-(trifluoromethyl)-1H-pyrazol-1-yl]benzenesulfonamide],improved,resolved,resolution of symptoms
Cc1ccc(-c2cc(C(F)(F)F)nn2-c2ccc(S(N)(=O)=O)cc2)cc1 [4-[5-(4-Methylphenyl)-3-(trifluoromethyl)-1H-pyrazol-1-yl]benzenesulfonamide],same result,–,–

# From patent US7041694B1, “Cyclooxygenase-2 inhibition” (Cornell Research Foundation, Inc., priority 1997, dated 2006)
